Data published in BindingDB's records for doi:10.1016/j.bmc.2014.11.013 (University Medical Center Groningen, 2014).

Assay: Inhibition of human recombinant ADAM17 using Mca-PLAQAV-Dpa-RSSSR-NH2

Row | IC50 | Compound
1 | 25 nM | CC(C)C[C@H](CC(=O)NO)C(=O)N[C@@H](Cc1ccccc1)C(=O)N[C@@H](CCCCNC(=O)c1ccc(F)cc1)C(N)=O
2 | 5.7 nM | CC(C)C[C@H](CC(=O)NO)C(=O)N[C@@H](Cc1ccccc1)C(=O)N[C@@H](CCCCN)C(N)=O
